Laboratory results taken from patent US20030032078A1, “Methods and compositions for the treatment of macular and retinal degenerations” (Board of Regents, The University of Texas System, priority 2001, published 2003).
Entries after “also recorded” stand apart in the source; their conditions may differ. Like-named read-outs stand apart in the source and are kept apart here.

Key:
abcr−/− mice = assay: A2E and A2PE-H2 levels in ocular tissues of abcr−/− mice treated with isotretinoin (HPLC); assay type: in vivo, mouse
Protocol: FIG. 7—A2E and A2PE-H2 in abcr−/− ocular tissues following treatment with isotretinoin. A2E and A2PE-H2 were extracted from the indicated tissues and analyzed by HPLC as previously described (Mata et al., 2000; Weng et al., 1999). (FIG. 7A) A2E levels in abcr−/− RPE from four-month-old mice treated for one month with isotretinoin at 40 mg/kg/day (4-mo 13cRA), four-month-old mice treated with DMSO carrier alone (4-mo DMSO), and three-month-old untreated mice (3-mo untreated). (FIG. 7B) A2PE-H2 levels in abcr−/− RPE from the same animals in panel (A) plus four-month-old untreated mice (4-mo untreated). (FIG. 7C) A2PE-H2 levels in abcr−/− retinas from the same animals in panel (B). All data are shown as milliabsorption units (mAU) at the indicated wavelengths±SEM (n=3).
Tissue Preparation and Extraction. Mouse and human tissues were homogenized in 1 ml of PBS. For analysis of mouse outer segments, dissected retinas were shaken on a vortex mixer in 8% Optiprep/Ringer's buffer and fractionated by centrifugation through an Optiprep step-gradient according to the procedure of Tsang et al. (1998). Collected outer segments were suspended in 1 ml PBS and homogenized. 1 ml of chloroform/methanol (2:1, v/v) was added to each homogenate. Phospholipids and chloroform-soluble fluorophores were extracted twice from the samples following addition of 4 ml of chloroform and 3 ml water. The pooled organic phases were dried under a stream of argon. Sample residues were resuspended in 200- 400 μl of hexane, and analyzed by HPLC.
Sample extracts were analyzed by normal phase HPLC using an HP 1100 liquid chromatograph with a photodiode array detector. Chromatography conditions were as previously described (Birnbach et al., 1994) using a silica column (Microsorb 5 μm Si, 250×4.6 mm) and the mobile phase: hexane/2-propanol/ethanol/25 mM potassium phosphate/acetic acid (485:376:100:40:0.275, v/v; pH 7.0). For A2PE-H2 purification, the water content was reduced to 2.5% for better resolution of fatty acyl esters. Spectra for the eluted peaks were corrected by subtracting the nearest integrated baseline to remove solvent absorption. A2-E, phosphatidylethanolamine, and all-trans-RAL were quantitated by comparing the sample peak-area to a calibration curve constructed with authentic standards (18:0-22:6 for the phosphatidylethanolamine standard) (Birnbach et al., 1994). […] In Table 6, APE and protonated-APE were quantitated using published molar extinction coefficients (Anderson et al., 1996).
Three-month-old abcr−/− mice were treated with isotretinoin (13 cis retinoic acid) for one month.

wild-type mice = assay: Retinoid profile after intraperitoneal injection of isotretinoin into light-adapted wild-type mice; assay type: in vivo, mouse
From the text: (§1) Long delays in 11cRAL regeneration are also observed after a photobleach in mice treated with isotretinoin. This alteration in the retinoid profile is similar to the pattern in 11cRDH knockout-mice (Driessen et al., 2000).

mice [1] = assay: Photoreceptor degeneration by histologic or electroretinographic (ERG) analysis after prolonged isotretinoin treatment; assay type: in vivo, mouse; details: prolonged treatment at doses up to 50 mg/kg/day (25× the maximum human dose)
From the text: as §1

11cRDH = details: Law et al., 1989, Gamble et al., 1999, cited from earlier work
mice [2] = details: Yuschak et al., 1993; cited from earlier work
[3] = humans; cited from earlier work
humans = details: clinical use for acne; due to impaired regeneration of rhodopsin; cited from earlier work
[4] = Isotretinoin in retina and RPE by HPLC analysis after intraperitoneal injection
[5] = tested on: patients with neovascularisation extending under the center of the retina; details: cited from earlier work
[6] = tested on: microsomal membranes prepared from bovine RPE; assay: Retinyl ester formation and isomerization from [3H]retinols in microsomal membranes from bovine RPE; assay type: biochemical
Protocol: The retinyl-ester content of fresh bovine ocular tissues were analyzed. Bovine RPE contained approximately 95% all-trans-retinyl esters (atRE) and 5% 1cRE. No retinyl esters were detectable in bovine retinas. When [^3H]atROL was added to microsomal membranes prepared from bovine RPE, the formation of [3H]atRE, and subsequent formation of [^3H]11cROL were observed. […] The isomeric inhibitor, 11-cis-retinyl α-bromoacetate (cRBA) was also synthesized. This agent suppressed the formation of [^3H]11cRE from [^3H]11cROL added to bovine-RPE membranes, but had no effect on the synthesis of [^3H]atRE or [^3H]11cROL from added [^3H]atROL. No ester-synthase activity was detected in bovine retinas. The results of these studies on rod-dominant bovine eyes are in full accord with the published results of other investigators (Rando et al., 1992; Saari et al., 1994; Crouch et al., 1996; Trehan et al., 1990).

[7] = tested on: membranes from chicken and ground squirrel retinas; assay: Retinyl ester formation and isomerization from [3H]atROL in membranes from chicken and ground squirrel retinas; assay type: biochemical; details: chicken and ground squirrel retina membranes
From the text: There are striking differences in retinyl-ester content and retinoid turnover upon analysis of ocular tissues from cone-dominant ground squirrel and chicken. Chicken retinas contained 60% 11cRE and 40% atRE, while ground-squirrel retinas contained 80% 11cRE and 20% atRE. The ratio of cones to rods is 60:40 in chicken (Meyer et al., 1973), 96:4 in ground squirrel (West et al., 1975), 3:97 in mouse (Carter-Dawson et al., 1979), and 8:92 in bovine retina (Krebs et al., 1982). Thus, across multiple species, the level of 11cRE in retina is loosely correlated with the ratio of cone to rod photoreceptors. […] During time-course studies, [^3H]11cROL always preceded the appearance of [3H]11cRE. […] In particular, this new all-trans-retinol isomerase (atRI) is insensitive to tRBA. This insensitivity rules out the trivial explanation of RPE contamination in retinal membrane preparations. […] Unlike LRAT, this new ester synthase is not inhibited by tRBA or cRBA, and has high specificity for the 11cROL substrate.

[8] = tested on: patients with retinitis pigmentosa (RP) and related retinal degenerations; details: supplemental lutein; Dagnelie et al., 2000; cited from earlier work
LRAT = biological target: T1, LRAT (Bos taurus, UniProt Q9BGL2); details: Trehan et al., 1990; cited from earlier work
T1 construct: microsomal membranes prepared from bovine RPE; from tissue; host or cells: bovine retinal pigment epithelium, microsomal membranes
T1 sequence (Q9BGL2 1-230): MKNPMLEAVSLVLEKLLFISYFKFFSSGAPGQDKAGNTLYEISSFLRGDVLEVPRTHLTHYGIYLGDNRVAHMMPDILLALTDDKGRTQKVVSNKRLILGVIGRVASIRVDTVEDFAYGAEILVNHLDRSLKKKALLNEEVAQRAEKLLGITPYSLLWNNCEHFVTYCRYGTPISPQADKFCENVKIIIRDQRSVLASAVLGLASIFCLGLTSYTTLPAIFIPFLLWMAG

rodent model = details: cited from earlier work
[9] = light-adapted wild-type mice, intraperitoneal injection

## CC1=C(/C=C/C(C)=C/C=C/C(C)=C\C(=O)O)C(C)(C)CCC1 [isotretinoin, 13-cis-retinoic acid]
abcr−/− mice; abcr−/− mice, isotretinoin 40 mg/kg/day for one month, FIG. 7A
  suppression of A2E accumulation in RPE: approximately two-fold
abcr−/− mice; abcr−/− mice, isotretinoin 40 mg/kg/day for one month, FIG. 7B
  suppression of A2PE-H2 accumulation in RPE: approximately three-fold
abcr−/− mice; four-month-old abcr−/− mice after one month of isotretinoin, FIG. 7C
  A2PE-H2 in retina: near absence; also recorded: virtually undetectable
abcr−/− mice; four-month-old abcr−/− mice treated for one month with isotretinoin at 40 mg/kg/day
  A2E in RPE, level relative to sham-treated (DMSO) controls: approximately 50%
wild-type mice; [9]
  11cRAL and atRAL in outer segments: Profound depletion
  11cRE in RPE cells: accumulation
wild-type mice; mice treated with isotretinoin
  11cRAL regeneration after a photobleach: Long delays
Mice [1]
  photoreceptor degeneration by histologic or electroretinographic (ERG) analysis: No photoreceptor degeneration
11cRDH
  inhibition of 11cRDH in RPE: potent inhibitor
11cRDH; listed as Isotretinoin
  inhibition of 11cRDH in RPE: inhibit 11cRDH
Mice [2]
  tolerated dose: up to 400 mg/kg/day
[3]
  serum half-life: 10 to 20 h
humans
  side effect night blindness: common side effect
[4]; five minutes following an intraperitoneal injection
  detection in retina and RPE: detected
[4]; one hour following a single injection at 4 mg/kg
  tissue concentrations: micromolar range

## verteporfin
[5]; at one year, reduced from 61%
  risk of moderate and severe vision loss: 33%
[5]; at two years, reduced from 69%
  risk of moderate and severe vision loss: 41%

## CC1=C(/C=C/C(C)=C/C=C\C(C)=C/COC(=O)CBr)C(C)(C)CCC1 [cRBA, 11-cis-retinyl α-bromoacetate]
[6]
  formation of [3H]11cRE from added [3H]11cROL: suppressed
  formation of atRE and 11cROL from added [3H]atROL: no effect
[7]
  synthesis of [3H]11cRE: no effect

## CC1=C[C@H](O)CC(C)(C)[C@H]1/C=C/C(C)=C/C=C/C(C)=C/C=C/C=C(C)/C=C/C=C(C)/C=C/C1=C(C)C[C@@H](O)CC1(C)C [lutein]
[8]
  effect on vision: short term improvements in vision

## CC1=C(/C=C/C(C)=C/C=C/C(C)=C/COC(=O)CBr)C(C)(C)CCC1 [tRBA, all-trans-retinyl α-bromoacetate]
[6]
  formation of [3H]11cRE from added [3H]11cROL: completely inhibited
  formation of atRE and 11cROL from added [3H]atROL: completely suppressed
[7]
  formation of [3H]11cROL or [3H]11cRE from added [3H]atROL: no effect
  formation of [3H]atRE from added [3H]atROL: completely suppressed
LRAT
  inhibition of LRAT: potent inhibitor

B1: Glial Derived Neurotrophic Factor: a survival factor which has slowed degeneration in a rodent model (protein, UniProt P39905 78-211, looked up)
Glial cell line-derived …: SPDKQMAVLPRRERNRQAAAANPENSRGKGRRGQRGKNRGCVLTAIHLNVTDLGLGYETKEELIFRYCSGSCDAAETTYDKILKNLSRNRRLVSDKVGQACCRPIAFDDDLSFLDDNLVYHILRKHSAKRCGCI
Rodent model
  effect on retinal degeneration: slowed degeneration
